Values after ≈ are worked out from the molar mass of the structure shown.

Results on 78 molecules are retold here after the OPERA property sets (Mansouri et al. 2018).

In turn, `CC[N+](=O)[O-]` had a solubility (25 °C) of 626 mM (≈ 47000 µg/mL). For `CC(Oc1cc(Cl)c(Cl)cc1Cl)C(=O)O` (stereo not drawn), the solubility (23 °C) was 0.341 mM (≈ 92 µg/mL).

Take `CC[C@H](C)[C@H](N)C(=O)O` (racemic): the solubility (24 °C) was 262 mM (≈ 34400 µg/mL).

`CCNc1nc(NC(C)C)nc(SC)n1` yielded a solubility (25 °C) of 0.919 mM (≈ 209 µg/mL). `CCCCCCCCCCCCCCCCO` displayed a solubility (25 °C) of 9.69e-05 mM (≈ 0.0235 µg/mL). In the case of `CCOP(=S)(OCC)Oc1nc(Cl)c(Cl)cc1Cl`, the solubility (24 °C) is 0.00319 mM (≈ 1.12 µg/mL). The molecule `CCNc1nc(NC(C)(C)C)nc(SC)n1` returned a solubility (20 °C) of 0.104 mM (≈ 25 µg/mL).

As to `Oc1ncnc2[nH]ncc12`, the solubility (25 °C) is 4.18 mM (≈ 569 µg/mL). `c1ccc(Nc2ccccc2)cc1` showed a solubility (20 °C) of 0.313 mM (≈ 53 µg/mL). For the molecule `Cc1ccc2cc3c(ccc4ccccc43)cc2c1`, for the setting “24 °C”, the solubility was found to be 0.000153 mM (≈ 0.037 µg/mL).

As for `CCCCCCC(C)=O`, under “20 °C”, the solubility worked out at 7.02 mM (≈ 900 µg/mL). In turn, `O=C(O)c1cccc([N+](=O)[O-])c1` showed a solubility (25 °C) of 21.4 mM (≈ 3580 µg/mL). The same measure, in the same setting: to `CCCCC(=O)O` belongs 384 mM (≈ 39200 µg/mL).

With `O=[N+]([O-])c1ccc(Cl)c(Cl)c1`, for the setting “20 °C”, the solubility was 0.63 mM (≈ 121 µg/mL).

As for `CCNC(=O)CSP(=S)(OC)OC`, where the note is “25 °C”, the solubility is 34.9 mM (≈ 8500 µg/mL). This lies in the millimolar range. Molecule `Clc1ccc(Cl)cc1` showed a solubility (25 °C) of 0.553 mM (≈ 81.3 µg/mL). Regarding `CCCCC(C)=O`, the solubility (20 °C) worked out at 175 mM (≈ 17500 µg/mL). With `Nc1ccc(C(=O)O)cc1`, where the note is “30 °C”, the solubility amounted to 44.6 mM (≈ 6110 µg/mL). This counts as millimolar. With `Clc1ccc(C(c2ccc(Cl)cc2)C(Cl)(Cl)Cl)cc1`, the solubility (25 °C) was determined as 1.55e-05 mM (≈ 0.0055 µg/mL). Molecule `O=C1OC(c2ccc(O)cc2)(c2ccc(O)cc2)c2ccccc21` registered a solubility of 1.26 mM (≈ 400 µg/mL). In other words, the millimolar range.

For the molecule `CCC1(CCC(C)C)C(=O)NC(=O)NC1=O`, under “25 °C”, the solubility was found to be 2.67 mM (≈ 603 µg/mL). Where the note is “20 °C”, `BrCCCBr` registered a solubility of 8.42 mM (≈ 1700 µg/mL). As for `C[C@]12CC[C@H]3[C@@H](CCC4=CC(=O)CC[C@@H]43)[C@@H]1CC[C@@H]2O`, the solubility (25 °C) was 11.3 mM (≈ 3090 µg/mL). That is a millimolar value. Regarding `O=[N+]([O-])c1ccc(Cl)cc1`, under “20 °C”, the solubility was 1.43 mM (≈ 225 µg/mL).

`Nc1ccccc1` had a solubility (25 °C) of 387 mM (≈ 36000 µg/mL). This counts as millimolar. For `CC(=O)OC(C)=O`, the solubility (20 °C) was 1180 mM (≈ 120000 µg/mL). In the case of `CC(C)(C)C`, the solubility (25 °C) was determined as 0.46 mM (≈ 33.2 µg/mL).

Consider `Cn1cnc2c1c(=O)[nH]c(=O)n2C`, for which, where the note is “25 °C”, the solubility stood at 1.83 mM (≈ 330 µg/mL).

Where the note is “25 °C”, `Cc1ccc(O)cc1` gave a solubility of 199 mM (≈ 21500 µg/mL). As to `N[C@@H](Cc1ccccc1)C(=O)O` (racemic), for the setting “22 °C”, the solubility was found to be 134 mM (≈ 22100 µg/mL). In the case of `Nc1nc(N)nc(N)n1`, the solubility (20 °C) came out at 25.6 mM (≈ 3230 µg/mL). On the same count and under the same terms, as for `CC1(C)C(=O)N(Cl)C(=O)N1Cl`, the figure is 2.54 mM (≈ 500 µg/mL); as for `CCOP(=S)(OCC)SCC(=O)NC(C)C`, 8.76 mM (≈ 2500 µg/mL). On to `O=Cc1ccco1`, for which, where the note is “25 °C”, the solubility stood at 801 mM (≈ 77000 µg/mL). In other words, the millimolar range. `CCCBr`: where the note is “20 °C”, the solubility is 19.9 mM (≈ 2450 µg/mL). In the case of `CC12CCC(CC1=O)C2(C)C` (stereo not drawn), the solubility (25 °C) is 2.63 mM (≈ 400 µg/mL). Same read-out and setting: as for `Oc1cccc(O)c1O`, the figure is 4020 mM (≈ 507000 µg/mL); as for `CCOC(=O)c1ccc(O)cc1`, 4.91 mM (≈ 816 µg/mL); as for `C[C@]12CCC(=O)C=C1CC[C@@H]1[C@@H]2CC[C@@]2(C)[C@H]1CC[C@]2(C)O`, 0.112 mM (≈ 33.9 µg/mL).

Molecule `ClC1(Cl)C2(Cl)C3(Cl)C4(Cl)C(Cl)(Cl)C5(Cl)C3(Cl)C1(Cl)C5(Cl)C24Cl` (stereo not drawn) gave a solubility (25 °C) of 0.000156 mM (≈ 0.085 µg/mL). This solubility lies about 720-fold lower than the previous one. Under “20 °C”, `C#C` showed a solubility of 46.1 mM (≈ 1200 µg/mL).

`CCCCc1ccccc1`: for the setting “25 °C”, the solubility was 0.0879 mM (≈ 11.8 µg/mL). Molecule `O=C(O)c1cccnc1C(=O)O` gave a solubility (25 °C) of 65.8 mM (≈ 11000 µg/mL). In turn, `CCOCCOC(C)=O` had a solubility (20 °C) of 1870 mM (≈ 247000 µg/mL). For the setting “20 °C”, `CNC(=O)Oc1cc(C(C)(C)C)cc(C(C)(C)C)c1` yielded a solubility of 0.057 mM (≈ 15 µg/mL). This solubility lies about 33000-fold lower than the previous one. With `N[C@@H](Cc1c[nH]c2ccccc12)C(=O)O`, the solubility (25 °C) was 65.6 mM (≈ 13400 µg/mL).

Consider `CCCCCCCCC=O`, for which, where the note is “25 °C”, the solubility was 0.675 mM (≈ 96 µg/mL). Same read-out and setting: as for `OC(O)C(Cl)(Cl)Cl`, the figure is 4790 mM (≈ 793000 µg/mL). In the case of `CCC1(c2ccccc2)CCC(=O)NC1=O` (stereo not drawn), the solubility (30 °C) is 4.6 mM (≈ 999 µg/mL). This lies in the millimolar range. With `COP(=S)(OC)SCC(=O)N(C)C=O`, under “24 °C”, the solubility was found to be 10.1 mM (≈ 2600 µg/mL). The molecule `CC(C)(C)NCC(O)c1ccc(O)c(CO)c1` (stereo not drawn) showed a solubility of 59.3 mM (≈ 14200 µg/mL). The same measure, in the same setting: as for `NC(=O)NC1NC(=O)NC1=O` (stereo not drawn), the figure is 33.3 mM (≈ 5260 µg/mL). In turn, `S=C=S` had a solubility (20 °C) of 15.5 mM (≈ 1180 µg/mL).

Where the note is “20 °C”, `C#CC(C)OC(=O)Nc1cccc(Cl)c1` (stereo not drawn) yielded a solubility of 2.41 mM (≈ 540 µg/mL). On the same count and under the same terms, as for `O=[N+]([O-])c1cccc(Cl)c1`, the figure is 1.73 mM (≈ 273 µg/mL). The molecule `CCCCCC(=O)O` registered a solubility (25 °C) of 88.7 mM (≈ 10300 µg/mL). For the setting “25 °C”, `CCC(C)CC` returned a solubility of 0.208 mM (≈ 17.9 µg/mL). On the same count and under the same terms, as for `Cc1cccc(O)c1`, the figure is 210 mM (≈ 22700 µg/mL); as for `O=C(O)c1ccccc1C(=O)O`, 42.1 mM (≈ 6990 µg/mL); as for `Nc1ccc2ccccc2c1`, 1.32 mM (≈ 189 µg/mL).

The molecule `O=[N+]([O-])c1cccc(Cl)c1Cl` gave a solubility (20 °C) of 0.325 mM (≈ 62.4 µg/mL). Where the note is “25 °C”, `C1=CCCCC1` showed a solubility of 2.59 mM (≈ 213 µg/mL). Still for that read-out and setting: to `CC(C)C[C@H](N)C(=O)O` belongs 141 mM (≈ 18500 µg/mL); to `ClC(Cl)=C(c1ccc(Cl)cc1)c1ccc(Cl)cc1`, 0.000126 mM (≈ 0.04 µg/mL). As to `O=[N+]([O-])C(Br)(CO)CO`, the solubility (22 °C) is 1250 mM (≈ 250000 µg/mL).

Where the note is “24 °C”, `CN1CCN(CCCN2c3ccccc3Sc3ccc(Cl)cc32)CC1` had a solubility of 0.04 mM (≈ 15 µg/mL).

The molecule `CCCCCCCO` came in with a solubility (25 °C) of 14.4 mM (≈ 1670 µg/mL). This counts as millimolar. On the same count and under the same terms, as for `CC(C)OC(=O)Nc1ccccc1`, the figure is 0.999 mM (≈ 179 µg/mL).

`CC(C)Br` showed a solubility (20 °C) of 24.6 mM (≈ 3020 µg/mL). That is a millimolar value. Where the note is “25 °C”, `Cn1c(=O)c2[nH]cnc2n(C)c1=O` came in with a solubility of 40.9 mM (≈ 7360 µg/mL). In other words, the millimolar range. In turn, `O=Cc1ccccc1` registered a solubility (25 °C) of 61.9 mM (≈ 6570 µg/mL). Compared with the last molecule, the solubility is about 1.5-fold higher. Molecule `Cc1cc(O)cc(C)c1Cl` showed a solubility (20 °C) of 1.6 mM (≈ 250 µg/mL). `CCN(CC)c1c([N+](=O)[O-])cc(C(F)(F)F)c(N)c1[N+](=O)[O-]` gave a solubility (25 °C) of 0.00341 mM (≈ 1.1 µg/mL). Molecule `CCOC(=O)c1ccc(N)cc1` returned a solubility (30 °C) of 7.93 mM (≈ 1310 µg/mL). Molecule `O=C(Nc1cccc(Cl)c1)OCC#CCCl` yielded a solubility (25 °C) of 0.0426 mM (≈ 11 µg/mL). Same read-out and setting: as for `CCCC(C)(COC(N)=O)COC(N)=O`, the figure is 21.5 mM (≈ 4700 µg/mL); as for `c1ccc(-c2ccccc2)cc1`, 0.045 mM (≈ 6.94 µg/mL). Still for that read-out and setting: to `COc1cc(Cl)c(OC)cc1Cl` belongs 0.0386 mM (≈ 8 µg/mL).

What is called solubility is the concentration that dissolves in the medium under given conditions. Read a high solubility as a readily soluble substance.
